From paper PMC4515429, “Anti-Biofilm and Immunomodulatory Activities of Peptides That Inhibit Biofilms Formed by Pathogens Isolated from Cystic Fibrosis Patients” (Antibiotics, 2014)
Where no end group is shown, it is not given here.

How the values were obtained:
P. aeruginosa PA14 [1] = test: Anti-biofilm activity, BioFlux apparatus; format: cell-based, Pseudomonas aeruginosa; conditions: 15 µg/mL peptide
[2] = system: monocyte chemotactic protein-1 (MCP-1) production by human peripheral blood mononuclear cells; test: MCP-1 induction in PBMCs, sandwich ELISA; format: cell-based; conditions: 24 h; for level of MCP-1 induction at 100 µg/mL: 100 µg/mL peptide; for MCP-1 induction: 20 and 100 µg/mL peptide, cf. untreated control
Experimental: (§1) (A) Human peripheral blood mononuclear cells were subjected to 20 µg/mL and 100 µg/mL of HE1, HE4, HE10, HE12, and 1018 for 24 h. Monocyte chemotactic protein-1 (MCP-1) production was assessed using sandwich enzyme linked immunosorbent assay (ELISA). The level of MCP-1 induction was similar for HE1, HE4, HE10, and 1018 at 100 µg/mL; (B) LPS (20 ng/mL) was co-administered with 20 µg/mL of each of the aforementioned peptides for 24 h. The tumor necrosis factor-alpha (TNF-α) production in response to both stimulants was assessed using enzyme linked immunosorbent assay (ELISA) and compared to lipopolysaccharides (LPS) alone. […] Lactate dehydrogenase release from peripheral blood mononuclear cells (PBMCs) was measured to assess the toxicity of 20 µg/mL and 100 µg/mL of 1018 and its derivatives.
These studies were done as described previously. Briefly, human peripheral blood mononuclear cells (PBMCs) were isolated from the blood of healthy individuals obtained under University of British Columbia (UBC) human ethics approval. PBMCs were diluted to 2 × 10^6 cells/ml in RPMI-1640 medium (Gibco®, Grand Island, NY, USA) supplemented with 10% fetal bovine serum (FBS). Subsequently, 250 µL of cells were seeded in each well of a 48-well dish. […] To assess chemokine induction after 24 h, the levels of chemokine MCP-1 (CCL2) were assessed in the supernatants three times independently using a sandwich ELISA kit (BioSource International, Grand Island, NY, USA). To look at the anti-inflammatory activity of the peptides in suppressing LPS-induced TNFα, P. aeruginosa LPS was added at a final concentration of 20 ng/mL as well as peptides at 20 μg/mL or 100 μg/mL. Secretion of TNF-α was monitored by capture ELISA (eBiosciences, San Diego, CA, USA) after 24 h.

P. aeruginosa PA14 [3] = test: Flow cell biofilm assay, confocal microscopy; format: cell-based, Pseudomonas aeruginosa; conditions: 72 h, 37 °C, inhibition and eradication conditions, Syto-9/PI confocal imaging
Experimental: For biofilm prevention conditions, the peptides were added to the medium from the beginning of the experiment. For eradication experiments, bacteria were allowed to develop structured 2-day-old biofilms prior to peptide and antibiotics treatment for the following 24 h.
Biofilms were grown for 72 h, in the absence or presence of the desired concentration of the different peptides, at 37 °C in flow chambers with channel dimensions of 1 by 4 by 40 mm, and then stained and examined by confocal microscopy, as described previously. For biofilm prevention studies the peptide was present in the flow-through medium throughout the biofilm growth while for eradication experiments, biofilms were allowed to grow for 2 days, before treating them with peptide for the last 24 h of the experiment.

[4] = system: methicillin resistant Staphylococcus aureus (MRSA); test: Biofilm inhibition in 96-well plates, static conditions; format: cell-based; conditions: polypropylene microtiter plates, BM2, 24 h, 37 °C, crystal violet, absorbance 595 nm
Experimental: Figure 3 Biofilm inhibitory activity against methicillin resistant Staphylococcus aureus (MRSA) in 96-well plates. […] Statistical significance was assessed using one-way ANOVA (*, p < 0.05; ***, p < 0.001; ****, p < 0.0001).

[5] = system: TNF-α production by human peripheral blood mononuclear cells; test: LPS-induced TNF-α production in PBMCs, ELISA; format: cell-based; conditions: LPS-stimulated PBMCs, Figure 4B
Experimental: as §1
These studies were done as described previously. Briefly, human peripheral blood mononuclear cells (PBMCs) were isolated from the blood of healthy individuals obtained under University of British Columbia (UBC) human ethics approval. […] To assess chemokine induction after 24 h, the levels of chemokine MCP-1 (CCL2) were assessed in the supernatants three times independently using a sandwich ELISA kit (BioSource International, Grand Island, NY, USA). […] Secretion of TNF-α was monitored by capture ELISA (eBiosciences, San Diego, CA, USA) after 24 h.

B. cenocepacia 4813 = test: Anti-biofilm activity of 1018 derivatives (Table 4); format: cell-based, Burkholderia cenocepacia; conditions: 15 µg/mL peptide
Experimental: Biofilm formation was initially analyzed using a static abiotic solid surface assay as described elsewhere [21]. Dilutions (1/100) of overnight cultures were incubated in BM2 glucose medium (62 mM potassium phosphate buffer (pH 7), 7 mM (NH4)2SO4, 2 mM MgSO4, 10 μM FeSO4, 0.4% (wt/vol) glucose, 0.5% (wt/vol) Casamino Acids) in polypropylene microtiter plates (Fisher Scientific, Waltham, MA, USA) in the presence of the different peptides for 22 h at 37 °C. Planktonic cells were removed and biofilm cells adhering to the side of the tubes were stained with crystal violet, extracted into ethanol, and the optical density at 595 nm (OD595) measured using a microtiter plate reader (Bio-Tek Instruments Inc., Winooski, VT, USA). Peptides were added at time zero (prior to adding the diluted, overnight cultures) at various concentrations, and the decrease in biofilm formation was recorded at 22 h for P. aeruginosa, Burkholderia and Methicillin-resistant Staphylococcus aureus isolates.

P. aeruginosa PA14 [6] = conditions: PA14, 18 h
Experimental: In addition to the wild type lab isolates Pseudomonas aeruginosa strains PAO1 and PA14, a variety of cystic fibrosis clinical isolates of P. aeruginosa and Burkholderia cepacia complex strains were utilized (Table 1). Planktonic cells from each of the P. aeruginosa and B. cepacia strains were grown in BM2 glucose or cation-adjusted Mueller-Hinton. The minimal inhibitory concentration (MIC) for peptides in brain-heart infusion (BHI) was assessed by the broth microdilution method with minor modifications for cationic peptides. […] MIC assays were performed in sterile 96-well polypropylene microtiter plates. […] The plates were incubated at 37 °C for 18 h.

Row | Substance | Anti-Biofilm Activity (% Decrease in Biofilm) (P. aeruginosa PA14 [1]) [%] | level of MCP-1 induction at 100 µg/mL [2] | MCP-1 induction [2] | Anti-Biofilm Activity (% Decrease in Biofilm) (B. cenocepacia 4813) [%] | other results
1 | RRWIRVAVILRV [HE1] | 93 | similar | significantly induced MCP-1 |  | 
2 | VRLI--VRIWRR [HE10, 1018 derivative, truncated to remove hydrophobic patch] |  | similar | significantly induced MCP-1 |  | anti-biofilm activity in flow cells (P. aeruginosa PA14 [3]): strong anti-biofilm activity comparable with that of 1018; biofilm inhibitory activity against MRSA compared to 1018 [4]: notably more active; suppression of TNF-α production [5]: strongly suppressing the production of TNF-α
3 | VRLIRAVRAWRV [HE2, 1018 derivative, break hydrophobicity; maintain charge] | 42 |  |  | 24 | 
4 | VRLIWAVRIWRR [HE4] |  |  |  |  | MIC (P. aeruginosa PA14 [6]): 80 µg/mL
5 | VRWARVARILRV [HE3, 1018 derivative, reverse of HE2] | 31 |  |  | 21 | 
